PubChem BioAssay AID330 (DTP/NCI, 2004)
“And” between values parts separate entries of the source, which are not always exact repeats. Equal values may be shown once. Inconclusive results and toxic doses are left out. Peptide text beside a SMILES is read from it.

Tested on: P388 leukemia ip, CD2F1 mice, survival T/C
Test: NCI In Vivo Anticancer Drug Screen. Data for tumor model P388 Leukemia (intraperitoneal) in CD2F1 (CDF1) mice
Settings: endpoint: median survival time, higher = longer survival
In short: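 Mice carrying the transplanted tumor received test compound or vehicle. Survival was recorded in each group, and the value is the treated-group measurement divided by that of the vehicle-treated control group.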

[1] = dose: 25.0 mg/kg/injection, schedule: Q01DX009 (ip), vehicle: saline with Tween-80
[2] = dose: 50.0 mg/kg/injection, schedule: Q01DX009 (ip), vehicle: saline with Tween-80
[3] = dose: 12.5 mg/kg/injection, schedule: Q01DX009 (ip), vehicle: saline
[4] = dose: 25.0 mg/kg/injection, schedule: Q01DX009 (ip), vehicle: Klucel (hydroxypropylcellulose) (HPC)
[5] = dose: 25.0 mg/kg/injection, schedule: Q01DX009 (ip), vehicle: saline
[6] = dose: 50.0 mg/kg/injection, schedule: Q01DX009 (ip), vehicle: Klucel (hydroxypropylcellulose) (HPC)
[7] = dose: 100.0 mg/kg/injection, schedule: Q01DX009 (ip), vehicle: saline with Tween-80
[8] = dose: 200.0 mg/kg/injection, schedule: Q01DX009 (ip), vehicle: Klucel (hydroxypropylcellulose) (HPC)
[9] = dose: 60.0 mg/kg/injection, schedule: Q01DX005 (ip), vehicle: saline
[10] = dose: 120.0 mg/kg/injection, schedule: Q01DX005 (ip), vehicle: saline
[11] = dose: 240.0 mg/kg/injection, schedule: Q01DX005 (ip), vehicle: saline
[12] = dose: 100.0 mg/kg/injection, schedule: Q01DX009 (ip), vehicle: Klucel (hydroxypropylcellulose) (HPC)
[13] = dose: 200.0 mg/kg/injection, schedule: Q01DX009 (ip), vehicle: saline with Tween-80
[14] = dose: 100.0 mg/kg/injection, schedule: Q04DX002 (ip), vehicle: saline
[15] = dose: 200.0 mg/kg/injection, schedule: Q04DX002 (ip), vehicle: saline

CN1C(=O)N(C2CCCCC2)C(=O)C(C)(CN2CCCCC2)C1=O (centres undefined)
T/C (dose: 12.5 mg/kg/injection, schedule: Q01DX009 (ip), vehicle: saline with Tween-80): 102 % of control | T/C [1]: 100 % of control | T/C [2]: 102 % of control | T/C (dose: 50.0 mg/kg/injection, schedule: Q01DX009 (sc), vehicle: saline with Tween-80): 100 % of control | T/C (dose: 200.0 mg/kg/injection, schedule: Q01DX009 (sc), vehicle: saline with Tween-80): 108 % of control

CCc1ccccc1N1CCN(C(=O)c2cc(OC)c(OC)c(OC)c2)CC1
T/C (dose: 12.5 mg/kg/injection, schedule: Q01DX009 (ip), vehicle: Klucel (hydroxypropylcellulose) (HPC)): 95 % of control | T/C [3]: 100 % of control and 120 % of control | T/C [4]: 104 % of control | T/C [5]: 102 % of control and 91 % of control | T/C (dose: 44.0 mg/kg/injection, schedule: Q01DX009 (ip), vehicle: saline with Tween-80): 120 % of control | T/C [6]: 113 % of control | T/C (dose: 50.0 mg/kg/injection, schedule: Q01DX009 (ip), vehicle: saline): 102 % of control and 93 % of control | T/C (dose: 66.0 mg/kg/injection, schedule: Q01DX009 (ip), vehicle: saline with Tween-80): 115 % of control | T/C (dose: 75.0 mg/kg/injection, schedule: Q04DX003 (ip), vehicle: saline with Tween-80): 109 % of control | T/C [7]: 115 % of control | T/C (dose: 100.0 mg/kg/injection, schedule: Q01DX009 (ip), vehicle: saline): 90 % of control and 93 % of control | T/C (dose: 100.0 mg/kg/injection, schedule: Q04DX003 (ip), vehicle: saline with Tween-80): 105 % of control | T/C (dose: 150.0 mg/kg/injection, schedule: Q01DX009 (ip), vehicle: saline with Tween-80): 150 % of control | T/C (dose: 150.0 mg/kg/injection, schedule: Q04DX003 (ip), vehicle: saline with Tween-80): 114 % of control | T/C [8]: 92 % of control | T/C (dose: 200.0 mg/kg/injection, schedule: Q01DX009 (ip), vehicle: saline): 88 % of control | T/C (dose: 225.0 mg/kg/injection, schedule: Q04DX003 (ip), vehicle: saline with Tween-80): 121 % of control | T/C (dose: 300.0 mg/kg/injection, schedule: Q04DX003 (ip), vehicle: saline with Tween-80): 100 % of control | T/C (dose: 400.0 mg/kg/injection, schedule: Q01DX009 (ip), vehicle: saline): 95 % of control

CC(C)CC1N=C(N(C)N=O)OP1(=O)NNc1ncccn1 (centres undefined)
T/C [9]: 97 % of control | T/C [10]: 102 % of control | T/C [11]: 99 % of control

CC1=C(I)C2(CCCCC2)OC1=O
T/C (dose: 100.0 mg/kg/injection, schedule: Q01DX001 (ip), vehicle: saline with Tween-80): 101 % of control | T/C (dose: 200.0 mg/kg/injection, schedule: Q01DX001 (ip), vehicle: saline with Tween-80): 94 % of control | T/C (dose: 400.0 mg/kg/injection, schedule: Q01DX001 (ip), vehicle: saline with Tween-80): 93 % of control

O=C1CCCCC1N1C(=O)c2ccccc2C1=O (centres undefined)
T/C (dose: 100.0 mg/kg/injection, schedule: Q04DX002 (ip), vehicle: Klucel (hydroxypropylcellulose) (HPC)): 101 % of control | T/C (dose: 200.0 mg/kg/injection, schedule: Q04DX002 (ip), vehicle: Klucel (hydroxypropylcellulose) (HPC)): 97 % of control | T/C (dose: 400.0 mg/kg/injection, schedule: Q04DX002 (ip), vehicle: Klucel (hydroxypropylcellulose) (HPC)): 97 % of control

CC1(C)CC(O)(C(Cl)c2ccccc2)C(=O)c2ccccc21 (centres undefined)
T/C [4]: 96 % of control | T/C [6]: 93 % of control | T/C [12]: 93 % of control | T/C [8]: 94 % of control | T/C (dose: 400.0 mg/kg/injection, schedule: Q01DX009 (ip), vehicle: Klucel (hydroxypropylcellulose) (HPC)): 86 % of control

CC(C)(C)OC(=O)NC(CO)C(=O)O (centres undefined)
T/C [2]: 96 % of control | T/C [7]: 96 % of control | T/C [13]: 99 % of control

O=S(=O)(O)SNCCN1CCOCC1
T/C (dose: 6.25 mg/kg/injection, schedule: Q01DX009 (ip), vehicle: saline): 105 % of control | T/C [3]: 110 % of control | T/C [5]: 110 % of control

O=C(CN1CCN(CCO)CC1)N1c2ccccc2Sc2ccc(C(F)(F)F)cc21
T/C [14]: 101 % of control | T/C [15]: 90 % of control

O=C1NC(=O)C2C1C(C(=O)O)C1C3C(=O)NC(=O)C3C1C2C(=O)O (centres undefined)
T/C [1]: 91 % of control | T/C [2]: 94 % of control | T/C [7]: 97 % of control | T/C [13]: 91 % of control and 92 % of control | T/C (dose: 400.0 mg/kg/injection, schedule: Q01DX009 (ip), vehicle: saline with Tween-80): 96 % of control

CN1CCN(C2=NS(=O)(=O)c3cc(Cl)ccc3N2)CC1
T/C [2]: 104 % of control | T/C [7]: 104 % of control | T/C [13]: 91 % of control

CCCCCCCCC(=O)Nc1ncc([N+](=O)[O-])s1
T/C [6]: 113 % of control | T/C [12]: 115 % of control | T/C [8]: 100 % of control

O=C1OC(=O)C2CCC12 (centres undefined)
T/C [2]: 106 % of control | T/C [9]: 93 % of control | T/C [7]: 106 % of control | T/C [10]: 89 % of control | T/C [13]: 97 % of control | T/C [11]: 86 % of control

CC(=O)NCCc1nc(-c2nc(C(=O)NCCC[S+](C)C)cs2)cs1
T/C (dose: 1.56 mg/kg/injection, schedule: Q01DX005 (ip), vehicle: saline with Tween-80): 107 % of control | T/C (dose: 3.13 mg/kg/injection, schedule: Q01DX005 (ip), vehicle: saline with Tween-80): 107 % of control | T/C (dose: 6.25 mg/kg/injection, schedule: Q01DX005 (ip), vehicle: saline with Tween-80): 100 % of control and 105 % of control | T/C (dose: 25.0 mg/kg/injection, schedule: Q01DX005 (ip), vehicle: saline with Tween-80): 96 % of control

Cc1ccc(S(=O)(=O)NN=c2cccccc2)cc1
T/C (dose: 100.0 mg/kg/injection, schedule: Q01DX001 (ip), vehicle: DMSO): 101 % of control | T/C (dose: 200.0 mg/kg/injection, schedule: Q01DX001 (ip), vehicle: DMSO): 97 % of control

C=COc1ccccc1C1=NC(C(C)(C)C)(C(C)(C)C)P(OC)(OC)(OC)O1
T/C (dose: 100.0 mg/kg/injection, schedule: Q04DX003 (ip), vehicle: saline): 102 % of control | T/C (dose: 200.0 mg/kg/injection, schedule: Q04DX003 (ip), vehicle: saline): 108 % of control | T/C (dose: 400.0 mg/kg/injection, schedule: Q04DX003 (ip), vehicle: saline): 100 % of control

CC/C(=C(/CC)c1ccc(O)c(N(CCCl)CCCl)c1)c1ccc(O)c(N(CCCl)CCCl)c1
T/C (dose: 7.5 mg/kg/injection, schedule: Q01DX009 (ip), vehicle: saline): 106 % of control | T/C (dose: 15.0 mg/kg/injection, schedule: Q01DX009 (ip), vehicle: saline): 89 % of control | T/C (dose: 30.0 mg/kg/injection, schedule: Q01DX009 (ip), vehicle: saline): 105 % of control

COc1ccc(CCN2C(=O)C(=O)N(c3ccc(C)cc3)C2=O)cc1OC
T/C [6]: 96 % of control | T/C [12]: 97 % of control | T/C [8]: 104 % of control

COc1cc(CCNC(C)=O)c(NC=O)cc1OC
T/C [14]: 108 % of control | T/C [15]: 105 % of control | T/C (dose: 400.0 mg/kg/injection, schedule: Q04DX002 (ip), vehicle: saline): 99 % of control

O=C(CN1C(=O)c2cccc3c(Br)ccc(c23)C1=O)c1ccc(F)cc1
T/C (dose: 50.0 mg/kg/injection, schedule: Q01DX005 (ip), vehicle: saline with Tween-80): 87 % of control | T/C (dose: 100.0 mg/kg/injection, schedule: Q01DX005 (ip), vehicle: saline with Tween-80): 103 % of control | T/C (dose: 200.0 mg/kg/injection, schedule: Q01DX005 (ip), vehicle: saline with Tween-80): 89 % of control

CCC(C)C(NC(=O)C(Cc1ccccc1)NC(=O)C(N)CSC)C(N)=O (stereo not drawn) (H-Cys(Me)-Phe-Ile-NH2; configuration not given here)
T/C (dose: 50.0 mg/kg/injection, schedule: Q01DX005 (ip), vehicle: Klucel (hydroxypropylcellulose) (HPC)): 102 % of control | T/C (dose: 100.0 mg/kg/injection, schedule: Q01DX005 (ip), vehicle: Klucel (hydroxypropylcellulose) (HPC)): 99 % of control | T/C (dose: 200.0 mg/kg/injection, schedule: Q01DX005 (ip), vehicle: Klucel (hydroxypropylcellulose) (HPC)): 99 % of control

NC(Cc1ccccc1)P(=O)(O)O (centres undefined)
T/C (dose: 25.0 mg/kg/injection, schedule: Q01DX009 (ip), vehicle: suspension in saline): 97 % of control | T/C (dose: 50.0 mg/kg/injection, schedule: Q01DX009 (ip), vehicle: suspension in saline): 99 % of control | T/C (dose: 100.0 mg/kg/injection, schedule: Q01DX009 (ip), vehicle: suspension in saline): 99 % of control | T/C (dose: 200.0 mg/kg/injection, schedule: Q01DX009 (ip), vehicle: suspension in saline): 97 % of control

CCCCCCCC/C=C\CCCCCCCC(=O)OCCN(CCOC(=O)CCCCCCC/C=C\CCCCCCCC)C(=O)c1ccccc1
T/C [2]: 116 % of control | T/C [7]: 97 % of control | T/C [13]: 111 % of control
